Laboratory results: EP0431972A2, “Macrocyclic lactones having renin inhibiting properties” (MERCK & CO. INC., priority 1989, dated 1991)
Square brackets hold non-standard residues; d marks the D form. Peptide text beside a SMILES is read from it. * marks the point of attachment. Sta = CC(C)C[C@H](N)[C@@H](O)CC(=O)O; Isovaleryl = CC(C)CC(=O)*

Columns and labels:
[1] = system: conscious sodium-deficient Rhesus monkeys; test: intravenous evaluation of renin inhibitors in conscious sodium-deficient Rhesus monkeys (blood pressure lowering); format: in vivo; settings: i.v. bolus injection
Description: The following methods were used for in vivo evaluation of the renin inhibitors of Formua I : Intravenous evaluation of renin inhibitors in conscious sodium-deficient Rhesus monkeys : Rhesus monkeys, male and female, weighing 2.6-4.5 Kg, were surgically prepared with chronic arterial and venous catheters and vascular access ports for direct monitoring of mean arterial pressure (MAPI) and heart rate (HR). The animals were maintained on a low sodium diet (1.2 mmol Nalday) plus fruit for a week, and administered LASIX (furosemide) at 2.5 mg/Kg, intramuscularly the evening prior to the experiment The animals had been trained to sit quietly in the chairs with waterAD LIBIUM for the duration of the experiment. The inhibitors were administered by bolus injection using 0.5% acetic acid-5% dextrose in water as the vehicle (0.4 ml/Kg), and MAP and HRwere measured. Blood samples were withdrawn at different time intervals beginning at the nadir of hypotensive response. PRA was determined as described above. […] A projected ED50 dose for each inhibitorwas calculated using the following formula: ED50 (Test Inhibitor, umoles/Kg) = ED50 (SCRIP) X [IC50 (Test Inhibitor)/IC50 (SCRIP)], where the IC50 values were determined against human plasma renin. […] Percent inhibition of monkey PRA, changes in MAP and HR were calculated and plotted against time. […]

human plasma renin = human plasma renin IC50 determination; format: biochemical; settings: against human plasma renin, pH 7.4
Experimental: The following method was used for in vitro evaluation of the renin inhibitors of Formuta t: • The human plasma renin IC50 values for inhibitors of Formula I were determined at pH 7.4 following the procedure described in J. Boger, L.S. Payne, D.S. Perlow, N.S. Lohr, M. Poe, E.H. Blaine, E.H. Elm, T.W. Schorn, B.I. Lamont, T.-Y. Lin, M. Kawai, D.H. Rich and D.F. Veber, J. Med. Chem., 28, 1779 (1985).

CC(C)CC(=O)N[C@@H](Cc1c[nH]cn1)C(=O)N1CCC[C@H]1C(=O)N[C@@H](Cc1ccccc1)C(=O)N[C@@H](Cc1c[nH]cn1)C(=O)N[C@@H](CC(C)C)[C@@H](O)CC(=O)N[C@@H](CC(C)C)C(=O)N[C@@H](Cc1ccccc1)C(N)=O [SCRIP, Iva-His-Pro-Phe-His-Sta-Leu-Phe-NH2] (Isovaleryl-HPFH[Sta]LF-NH2)
i.v. dose of the standard inhibitor required to lower blood pressure by 50% of the maximal response (ED50) [1]: 0.039 µmol/kg | IC50 (human plasma renin): 3.7 nM
